Read-outs that look alike come from different tables or passages of the source.

The test system of assay [1] is PTZ-induced acute seizures. Nature of the assay: Pentylenetetrazole (PTZ)-induced seizure test. It is filed as in vivo, rat. To be noted: rats; for effect on seizure incidence: oral 6, 12, 24 μmol/kg, PTZ 50 mg/kg; for latency to tonic seizures: n = 6. As to the method:
PTZ can trigger dose-dependent tonic seizures through its antagonistic effects on GABAA receptor function. To evaluate target engagement at GABAA receptors, Zuranolone and S9 were tested in a PTZ-induced acute seizure model in rats, which is widely used to assess GABAergic activity. Based on their pharmacokinetic study results, S9 or Zuranolone was administered orally at the same doses (6, 12, and 24 μmol/kg) 1 h prior to PTZ challenge.
We randomly divided rats into 7 groups (n = 6): three same-dose groups for both Zuranolone and S9 (6, 12, 24 μmol/kg) and a vehicle control group (30% SBECD). PTZ can selectively antagonize the GABAA receptors at a dose below 60 mg/kg, while higher doses lead to non-competitive antagonism of GABAA receptors and activation of NMDA receptors. Thus, a dose of 50 mg/kg was applied in this experiment. After intragastric administration of the test drugs or vehicle for 1 h, the animals were injected intraperitoneally with PTZ saline solution at 50 mg/kg. The rats were then placed in observation chambers to monitor the latency of clonic seizures (seizures lasting ≥3 s with LORR) and tonic seizures (the rigid extension of limbs, forming an angle of more than 90° with the body plane) within 1 h.

Another assay addresses T1, α1β2γ2 GABAA receptor (Homo sapiens, UniProt P14867+P47870).
T1 construct: expressed in transfected cells
Nature of the assay: Whole-cell electrophysiology of GABA-evoked currents, LTK cells. The format is cell-based. The settings on record: for Emax: current induced by 1 μmol/L GABA = 100%. As to the method:
The α1β2γ2 and α4β3δ GABAA receptor subtypes, representing synaptic and extrasynaptic subunit compositions in neurons, are widely utilized for screening new NAS drugs. In this study, a preliminary SAR study was conducted on a series of Zuranolone analogs using the LogP values predicted by ADMETlab3.0 software, recombinant human GABAA receptor cell lines, and in vitro liver microsome stability assays. The results are summarized in Table 1, Table 2, and Table 3, respectively.
The effects of Zuranolone and synthetic analogs on GABA-evoked currents were assessed in LTK cells stably expressing α1β2γ2 GABAA receptor subunits (n = 3) or CHO cells transiently expressing α4β3δ receptors (n = 3). Whole-cell mode recordings were conducted using the HEKA EPC-10 amplifier and analyzed with PatchMaster software (version 2x90, HEKA Elektronik, Lambrecht, Germany). High-throughput whole-cell recordings were performed using the Q-Patch method from Sophion. Test substances were dissolved in DMSO (dimethyl sulfoxide) to prepare 10 mmol/L stock solutions, then diluted with perfusion bath solution to concentrations ranging from 0.01 to 10 μmol/L. In this experiment, the effects of Zuranolone and its synthetic analogs on GABA-induced currents were examined in the presence of a submaximal agonist concentration at 1 μmol/L GABA (EC20). Cells were pre-incubated with increasing doses of test substances for 30 s, followed by 2 s of GABA stimulation, and currents were recorded. The maximum efficacy (Emax) of the GABAA receptor is expressed with the current induced by 1 μmol/L GABA taken as 100%, and the percentage after treatment with the test compound is calculated. The EC50 values are determined by fitting the three concentration–response curves recorded from three cells.

T1 sequence (P14867 28-456): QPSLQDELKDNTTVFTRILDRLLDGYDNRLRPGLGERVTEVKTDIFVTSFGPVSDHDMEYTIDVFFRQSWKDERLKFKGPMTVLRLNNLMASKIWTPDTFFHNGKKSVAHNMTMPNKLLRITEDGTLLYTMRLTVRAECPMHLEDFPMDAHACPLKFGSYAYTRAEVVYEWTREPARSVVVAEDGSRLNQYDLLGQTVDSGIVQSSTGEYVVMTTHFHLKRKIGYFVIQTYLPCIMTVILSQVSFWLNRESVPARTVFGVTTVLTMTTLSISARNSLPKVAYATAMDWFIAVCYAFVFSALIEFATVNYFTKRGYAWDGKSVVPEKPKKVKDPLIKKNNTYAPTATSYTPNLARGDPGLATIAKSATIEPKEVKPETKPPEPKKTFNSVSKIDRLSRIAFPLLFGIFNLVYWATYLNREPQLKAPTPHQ
T1 sequence (P47870 25-512 limits assumed): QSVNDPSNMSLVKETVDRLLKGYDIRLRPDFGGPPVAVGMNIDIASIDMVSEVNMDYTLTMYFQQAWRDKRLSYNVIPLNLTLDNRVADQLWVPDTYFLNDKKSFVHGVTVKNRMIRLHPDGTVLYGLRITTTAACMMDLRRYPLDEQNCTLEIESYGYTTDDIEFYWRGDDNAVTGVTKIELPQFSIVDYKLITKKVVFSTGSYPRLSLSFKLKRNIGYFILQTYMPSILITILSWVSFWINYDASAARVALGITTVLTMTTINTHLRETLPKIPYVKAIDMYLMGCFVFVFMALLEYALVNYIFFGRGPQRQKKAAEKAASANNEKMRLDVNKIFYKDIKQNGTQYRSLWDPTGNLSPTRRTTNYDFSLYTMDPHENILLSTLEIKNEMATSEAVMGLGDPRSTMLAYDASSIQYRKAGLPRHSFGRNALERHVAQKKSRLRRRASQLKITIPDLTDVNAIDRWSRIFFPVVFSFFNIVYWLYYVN
T1 sequence (P18507 40-475 partner): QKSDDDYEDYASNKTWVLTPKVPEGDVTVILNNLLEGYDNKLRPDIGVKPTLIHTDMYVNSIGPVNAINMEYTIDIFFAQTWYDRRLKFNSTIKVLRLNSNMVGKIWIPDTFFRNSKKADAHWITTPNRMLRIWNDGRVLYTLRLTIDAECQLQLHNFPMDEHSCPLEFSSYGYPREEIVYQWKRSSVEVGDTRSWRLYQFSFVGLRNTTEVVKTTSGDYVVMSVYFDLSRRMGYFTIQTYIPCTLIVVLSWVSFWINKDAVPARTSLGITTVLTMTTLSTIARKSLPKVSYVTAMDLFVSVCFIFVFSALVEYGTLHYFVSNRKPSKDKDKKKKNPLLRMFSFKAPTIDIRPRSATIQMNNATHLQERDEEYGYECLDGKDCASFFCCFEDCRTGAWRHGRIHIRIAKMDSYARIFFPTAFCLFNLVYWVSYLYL

In the case of `C[C@@]1(O)CC[C@H]2[C@H](CC[C@@H]3[C@@H]2CC[C@]2(C)[C@@H](C(=O)Cn4cnn(-c5ccnc(OCC(F)(F)F)c5)c4=O)CC[C@@H]32)C1` [S9], in assay [1], the “effect on seizure incidence” value is given as “neither compound significantly affected seizure incidence”. Further, the EC50 (usually the concentration at which the effect is half-maximal) on α1β2γ2 GABAA receptor (LTK cells, 1 μmol/L GABA (EC20), n = 3, read-out: α1β2γ2 EC50) amounted to 50 ± 10 nM. Besides, the Emax – broadly, the maximal effect, on the per cent scale that the assay sets – on α1β2γ2 GABAA receptor (LTK cells, n = 3) worked out at 675 ± 163%. The “enhanced GABAA receptor potency compared to S28” value on α1β2γ2 GABAA receptor (S28 previously reported ref 25) is reported as “over 1 fold”. Also, on α1β2γ2 GABAA receptor (synaptic GABAA receptors), the “efficacy as % of that of Zuranolone” value stood at 76% and the “potency as % of that of Zuranolone” value is recorded as 250%. Moreover, the “efficacy as % of that of Zuranolone” value at α1β2γ2 GABAA receptor (synaptic and extrasynaptic GABAA receptors, not separated) is on record as “approximately 75%”.
In the case of `C[C@@]1(O)CC[C@H]2[C@H](CC[C@@H]3[C@@H]2CC[C@]2(C)[C@@H](C(=O)Cn4cc(C#N)cn4)CC[C@@H]32)C1` [Zuranolone], the “latency to tonic seizures” value in assay [1] (oral 12 μmol/kg 1 h before PTZ 50 mg/kg i.p.) worked out at 1748.0 ± 555.0 s; in assay [1] (oral 24 μmol/kg 1 h before PTZ 50 mg/kg i.p.), 2995.0 ± 430.6 s. Also, in assay [1], the “effect on seizure incidence” value is “neither compound significantly affected seizure incidence”. On α1β2γ2 GABAA receptor, this molecule had an EC50 of 123 ± 20 nM. The Emax at α1β2γ2 GABAA receptor (LTK cells, n = 3) was found to be 894 ± 40%.

Values taken from publication PMC12073189, “Synthesis and Evaluation of a Novel Zuranolone Analog with High GABAA Receptor PAM Activity and Excellent Pharmacokinetic Profiles” (Molecules, 2025).
